Columns and labels:
[1] = system: blackgrass (Alopecurus myosuroides); test: Test C preemergence, blackgrass; type: in vivo; conditions: 0 is no effect, 100 is complete control
Text: (§1) Seeds of plant species selected from blackgrass (Alopecurus myosuroides), corn (Zea mays), foxtail, giant (giant foxtail, Setaria faberi), goosegrass (Eleusine indica), kochia (Bassia scoparia), oat, wild (wild oat, Avena fatua), pigweed, palmer (palmer amaranth, Amaranthus palmeri), ragweed (common ragweed, Ambrosia artemisiifolia), ryegrass, Italian (Italian ryegrass, Lolium multiflorum), soybean (Glycine max) and wheat (Triticum aestivum) were planted into a blend of loam soil and sand and treated preemergence with a directed soil spray using test chemicals formulated in a non-phytotoxic solvent mixture which included a surfactant.
(§2) At the same time, plants selected from these crop and weed species and also galium (catchweed bedstraw, Galium aparine) and horseweed (Erigeron canadensis) were planted in pots containing the same blend of loam soil and sand and treated with postemergence applications of test chemicals formulated in the same manner. Plants ranged in height from 2 to 10 cm and were in the one- to two-leaf stage for the postemergence treatment. Treated plants and untreated controls were maintained in a greenhouse for 10 or 12 days, after which time all treated plants were compared to untreated controls and visually evaluated for injury. Plant response ratings, summarized in Table A, are based on a 0 to 100 scale where 0 is no effect and 100 is complete control. A dash (-) response means no test result.

corn (Zea mays) [2] = test: Test C preemergence, corn; type: in vivo; conditions: 0 is no effect, 100 is complete control
Text: as §1, §2

[3] = system: foxtail, giant (giant foxtail, Setaria faberi); test: Test C preemergence, giant foxtail; type: in vivo; conditions: 0 is no effect, 100 is complete control
Text: as §1, §2

[4] = system: goosegrass (Eleusine indica); test: Test C preemergence, goosegrass; type: in vivo; conditions: 0 is no effect, 100 is complete control
Text: as §1, §2

kochia (Bassia scoparia) [5] = test: Test C preemergence, kochia; type: in vivo; conditions: 0 is no effect, 100 is complete control
Text: as §1, §2

[6] = system: oat, wild (wild oat, Avena fatua); test: Test C preemergence, wild oat; type: in vivo; conditions: 0 is no effect, 100 is complete control
Text: as §1, §2

[7] = system: pigweed, palmer (palmer amaranth, Amaranthus palmeri); test: Test C preemergence, palmer amaranth; type: in vivo; conditions: 0 is no effect, 100 is complete control
Text: as §1, §2

[8] = system: ragweed (common ragweed, Ambrosia artemisiifolia); test: Test C preemergence, ragweed; type: in vivo; conditions: 0 is no effect, 100 is complete control
Text: as §1, §2

[9] = system: ryegrass, Italian (Italian ryegrass, Lolium multiflorum); test: Test C preemergence, Italian ryegrass; type: in vivo; conditions: 0 is no effect, 100 is complete control
Text: as §1, §2

soybean (Glycine max) [10] = test: Test C preemergence, soybean; type: in vivo; conditions: 0 is no effect, 100 is complete control
Text: as §1, §2

[11] = system: wheat (Triticum aestivum); test: Test C preemergence, wheat; type: in vivo; conditions: 0 is no effect, 100 is complete control
Text: as §1, §2

[12] = system: blackgrass (Alopecurus myosuroides); test: Test C postemergence, blackgrass; type: in vivo; conditions: 31 g ai/ha Postemergence; visual injury, 0 to 100 scale (0 no effect, 100 complete control)
Text: as §1, §2

corn (Zea mays) [13] = test: Test C postemergence, corn; type: in vivo
Text: as §1, §2

[14] = system: foxtail, giant (giant foxtail, Setaria faberi); test: Test C postemergence, giant foxtail; type: in vivo
Text: as §1, §2

[15] = system: goosegrass (Eleusine indica); test: Test C postemergence, goosegrass; type: in vivo
Text: as §1, §2

kochia (Bassia scoparia) [16] = test: Test C postemergence, kochia; type: in vivo
Text: as §1, §2

[17] = system: oat, wild (wild oat, Avena fatua); test: Test C postemergence, wild oat; type: in vivo
Text: as §1, §2

[18] = system: pigweed, palmer (palmer amaranth, Amaranthus palmeri); test: Test C postemergence, palmer amaranth; type: in vivo
Text: as §1, §2

[19] = system: ragweed (common ragweed, Ambrosia artemisiifolia); test: Test C postemergence, ragweed; type: in vivo
Text: as §1, §2

[20] = system: ryegrass, Italian (Italian ryegrass, Lolium multiflorum); test: Test C postemergence, Italian ryegrass; type: in vivo
Text: as §1, §2

soybean (Glycine max) [21] = test: Test C postemergence, soybean; type: in vivo
Text: as §1, §2

[22] = system: wheat (Triticum aestivum); test: Test C postemergence, wheat; type: in vivo
Text: as §1, §2

[23] = system: galium (catchweed bedstraw, Galium aparine); test: Test C postemergence, galium; type: in vivo
Text: as §1, §2

[24] = system: horseweed (Erigeron canadensis); test: Test C postemergence, horseweed; type: in vivo
Text: as §1, §2

[25] = system: barnyardgrass (Echinochloa crusgalli); test: Test D flooded paddy test, barnyardgrass; type: in vivo; parameters: key: 0 = no effect, 100 = complete control; conditions: 250 g ai/ha, Flood; applied to paddy water at 2-leaf stage; visual rating after 13 days; scale 0 (no effect) to 100 (complete control)
Protocol: (§3) Plant species in the flooded paddy test selected from barnyardgrass (Echinochloa crusgalli), ducksalad (Heteranthera limosa), rice (Oryza sativa), and sedge, umbrella (small-flower umbrella sedge, Cyperus difformis) were grown to the 2-leaf stage for testing. At time of treatment, test pots were flooded to 3 cm above the soil surface, treated by application of test compounds directly to the paddy water, and then maintained at that water depth for the duration of the test. Treated plants and controls were maintained in a greenhouse for 13 days, after which time all species were compared to controls and visually evaluated. Plant response ratings, summarized in Table B, are based on a scale of 0 to 100 where 0 is no effect and 100 is complete control. A dash (-) response means no test result.

[26] = system: ducksalad (Heteranthera limosa); test: Test D flooded paddy test, ducksalad; type: in vivo; parameters: key: 0 = no effect, 100 = complete control; conditions: 250 g ai/ha, Flood; applied to paddy water at 2-leaf stage; visual rating after 13 days; scale 0 (no effect) to 100 (complete control)
Protocol: as §3

rice (Oryza sativa) = test: Test D flooded paddy test, rice; type: in vivo; parameters: key: 0 = no effect, 100 = complete control; conditions: 250 g ai/ha, Flood; applied to paddy water at 2-leaf stage; visual rating after 13 days; scale 0 (no effect) to 100 (complete control)
Protocol: as §3

[27] = system: sedge, umbrella (small-flower umbrella sedge, Cyperus difformis); test: Test D flooded paddy test, umbrella sedge; type: in vivo; parameters: key: 0 = no effect, 100 = complete control; conditions: 250 g ai/ha, Flood; applied to paddy water at 2-leaf stage; visual rating after 13 days; scale 0 (no effect) to 100 (complete control)
Protocol: as §3

[28] = system: blackgrass (Alopecurus myosuroides); test: Test C postemergence, blackgrass; type: in vivo; conditions: 125 g ai/ha Postemergence; 0 is no effect, 100 is complete control
[29] = 31 g ai/ha Postemergence, visual injury, 0 to 100 scale (0 no effect, 100 complete control)
[30] = 125 g ai/ha Postemergence, 0 is no effect, 100 is complete control

For `CCO/N=C1\CCN(c2cc(NS(=O)(=O)C(F)(F)F)c(C)cc2C)C1=O` [Compound 12, N-[5-[3-(ethoxyimino)-2-oxo-1-pyrrolidinyl]-2,4-dimethylphenyl]-1,1,1-trifluoromethanesulfonamide], the “Plant response rating (0 to 100 scale), Blackgrass” value ([1]; 31 g ai/ha Preemergence) was 80, the “Plant response rating (0 to 100 scale), Blackgrass” value ([1]; 125 g ai/ha Preemergence) was 100 and the “Plant response rating (0 to 100 scale), Corn” value (corn (Zea mays) [2]; 31 g ai/ha Preemergence) was 70. For the same molecule, the “Plant response rating (0 to 100 scale), Corn” value (corn (Zea mays) [2]; 125 g ai/ha Preemergence) was 100, the “Plant response rating (0 to 100 scale), Foxtail, Giant” value ([3]; 31 g ai/ha Preemergence) was 100 and the “Plant response rating (0 to 100 scale), Foxtail, Giant” value ([3]; 125 g ai/ha Preemergence) was 100. The “Plant response rating (0 to 100 scale), Goosegrass” value ([4]; 31 g ai/ha Preemergence) was 90, the “Plant response rating (0 to 100 scale), Goosegrass” value ([4]; 125 g ai/ha Preemergence) was 100 and the “Plant response rating (0 to 100 scale), Kochia” value (kochia (Bassia scoparia) [5]; 31 g ai/ha Preemergence) was 100. The “Plant response rating (0 to 100 scale), Kochia” value (kochia (Bassia scoparia) [5]; 125 g ai/ha Preemergence) was 100, the “Plant response rating (0 to 100 scale), Oat, Wild” value ([6]; 31 g ai/ha Preemergence) was 90 and the “Plant response rating (0 to 100 scale), Oat, Wild” value ([6]; 125 g ai/ha Preemergence) was 100. The “Plant response rating (0 to 100 scale), Pigweed, Palmer” value ([7]; 31 g ai/ha Preemergence) was 100, the “Plant response rating (0 to 100 scale), Pigweed, Palmer” value ([7]; 125 g ai/ha Preemergence) was 100 and the “Plant response rating (0 to 100 scale), Ragweed” value ([8]; 31 g ai/ha Preemergence) was 100. The “Plant response rating (0 to 100 scale), Ragweed” value ([8]; 125 g ai/ha Preemergence) was 100, the “Plant response rating (0 to 100 scale), Ryegrass, Italian” value ([9]; 31 g ai/ha Preemergence) was 90 and the “Plant response rating (0 to 100 scale), Ryegrass, Italian” value ([9]; 125 g ai/ha Preemergence) was 100. The “Plant response rating (0 to 100 scale), Soybean” value (soybean (Glycine max) [10]; 31 g ai/ha Preemergence) was 90, the “Plant response rating (0 to 100 scale), Soybean” value (soybean (Glycine max) [10]; 125 g ai/ha Preemergence) was 100 and the “Plant response rating (0 to 100 scale), Wheat” value ([11]; 31 g ai/ha Preemergence) was 90. For the same molecule, the “Plant response rating (0 to 100 scale), Wheat” value ([11]; 125 g ai/ha Preemergence) was 100, the “Blackgrass plant response rating” value [12] was 80 and the “Corn plant response rating” value (corn (Zea mays) [13]; [29]) was 100. The “Plant response rating (0 to 100 scale), Corn” value (corn (Zea mays) [13]; [30]) was 100, the “Foxtail, Giant plant response rating” value [14, 29] was 90 and the “Plant response rating (0 to 100 scale), Foxtail, Giant” value [14, 30] was 90. The “Goosegrass plant response rating” value [15, 29] was 100, the “Plant response rating (0 to 100 scale), Goosegrass” value [15, 30] was 100 and the “Kochia plant response rating” value (kochia (Bassia scoparia) [16]; [29]) was 90. The “Plant response rating (0 to 100 scale), Kochia” value (kochia (Bassia scoparia) [16]; [30]) was 90, the “Oat, Wild plant response rating” value [17, 29] was 90 and the “Plant response rating (0 to 100 scale), Oat, Wild” value [17, 30] was 90. The “Pigweed, Palmer plant response rating” value [18, 29] was 80, the “Plant response rating (0 to 100 scale), Pigweed, Palmer” value [18, 30] was 100 and the “Ragweed plant response rating” value [19, 29] was 90. For the same molecule, the “Plant response rating (0 to 100 scale), Ragweed” value [19, 30] was 90, the “Ryegrass, Italian plant response rating” value [20, 29] was 70 and the “Plant response rating (0 to 100 scale), Ryegrass, Italian” value [20, 30] was 80. For the same molecule, the “Soybean plant response rating” value (soybean (Glycine max) [21]; [29]) was 100, the “Plant response rating (0 to 100 scale), Soybean” value (soybean (Glycine max) [21]; [30]) was 100 and the “Wheat plant response rating” value [22, 29] was 80. The “Plant response rating (0 to 100 scale), Wheat” value [22, 30] was 90, the “Galium plant response rating” value [23, 29] was 100 and the “Plant response rating (0 to 100 scale), Galium” value [23, 30] was 100. For the same molecule, the “Horseweed plant response rating” value [24, 29] was 90, the “Plant response rating (0 to 100 scale), Horseweed” value [24, 30] was 100 and the “Plant response rating, Barnyardgrass” value [25] was 0. The “Plant response rating, Ducksalad” value [26] was 100, the “Plant response rating, Rice” value (rice (Oryza sativa)) was 40 and the “Plant response rating, Sedge, Umbrella” value [27] was 100. The melting point was 201 to 204 °C and the “Plant response rating (0 to 100 scale), Blackgrass” value [28] was 100.
